Key:
Format in all cases: in vivo
[1] = Five points evaluation test: saltiness and savor modifying effect (ham made of pork loin); settings: Ham made of pork loint, average points of 5 panellers (2: no changes)
Protocol: Compound 6 of the flavone derivative (I) were used as a taste modifier. Ham made of pork loin was prepared by a general method, in use of pickle solutions containing the flavone derivative (I) in the amount of 1, 0.1 and 0.01 ppm and flavone derivative (I) free standard pickle solution, respectively. Sensory tests were carried out for modifying effects of the saltiness and the savor.
(§1) The sensory tests were conducted by 5 trained panellers to examine saltiness modifying effect (so called saltiness adapting effect) and savor modifying effect.
(§2) Each sample solution was evaluated assuming that the standard solution has the point of 2.
The pickle solution containing the above was prepared and cooled for a night. Then, raw meat (native pork) was molded and the pickle solution was injected at a rate of 120% to the molded meat. After injection, the molded meat was tumbled with tumbler (12 R. P. M./60 minutes) and salted for a night. It was packed in a container and subjected to dry at 60°C for 60 minutes, smoke at 70°C for 40 minutes and steam at 78°C (the temperature of the center raised to 70°C) to finish the processing. The processed meat was cooled for a night and evaluated.

[2] = Sensory test (limiting method): enhancing the sourness of acid sugar solution; design: key: (equivalent citric acid content / citric acid content with flavone) × 100; settings: citric acid 1.000 (g), flavone derivative (I) 0.00001 (g), 8 panellers; for Value of enhancing the sourness Ascending system: ascending system (from low concentration); for Value of enhancing the sourness Descending system: descending system (from high concentration)
Protocol: Compounds 1 to 11 of the flavone derivative (I) were used as a taste modifier to prepare acid sugar solution having compositions as follows:
As a control, 21 types of acid sugar solutions are used. In the control, the flavone derivative (I) is removed from the above composition and the content of citric acid is varied from 1.000 g to 1.500 g by 0.025 g.
Sensory tests were carried out by 8 trained panellers in accordance with a limiting method described in the Hand Book of Sensory evaluation, edited by Research Committee of sensory evaluation, Union of Japanese Scientists and Engineers, p.398 (1973) in use of acid sugar solutions containing respective flavone derivatives (I) and another acid sugar solutions having a various content of citric acid.
As for the content of citric acid, two types sensory tests were conducted, one was an ascending system (testing from solution with low concentration) and another was a descending system (testing from solution with high concentration).
The sensory evaluation was made by a value of enhancing the sourness. The value of enhancing the sourness was calculated by the following formula based on the content of citric acid in acid sugar solutions with varied concentration of citric acid, which has an equivalent stimulation with an acid sugar solution containing the flavone derivative (I) Value of enhancing the sourness = (content of citric acid in acid sugar solution sensed as an equivalent stimulation/content of citric acid in acid sugar solution containing the flavone derivative (I)) x 100 [formula]

[3] = Sensory test: refreshness, its continuity and quality of taste (mouth refreshing agent); settings: 0.1 (w/w)% flavor composition F (0.00005 (g) Compound 9) vs E, 8 panellers
Protocol: Compound 9 of the flavone derivative (I) was used as a taste modifier. Mouth refreshing agent comprising the above flavor composition E (control) or F (containing the flavone derivative (I)) was prepared.
First, 30 g of ethanol, 10 g of glycerin, 2 g of polyoxyethylene hardened castor oil, 0.1 g of sodium saccharin, 0.005 g of chlorhexidine and 58 g of water were mixed, and the above flavor composition E was added thereto such that 0.1 (w/w)% of the flavor compositon was contained, thereby preparing flavone derivative (I) free mouth refreshing agent. Alternatively, the flavor composition F was used in stead of the flavor composition E to prepare flavone derivative (I)-containing mouth refreshing agent.
Sensory tests for obtained mouth refreshing agents were carried out by 8 panellers comprised of 6 males and 2 females at the age from 20 to 40.

[4] = Sensory test: refreshness, its continuity and quality of taste (hard candy); settings: 0.1 (w/w)% flavor composition D (0.0001 (g) Compound 1) vs C, 8 panellers
Protocol: Compound 1 of the flavone derivative (I) was used as a taste modifier. Hard candy containing the above flavor composition C (control) or D (containing the flavone derivative (I)) was prepared.
First, 60 g of sugar, 40 g of thin malt syrup and 20 g of water were mixed and heated up to about 150°C to boil down, and then allowed to cool to about 120 °C while stirring. Next, the above flavor composition C was added thereto such that 0.1 (w/w)% of the flavor composition was contained and it is poured into a box, thereby preparing flavone derivative (I) free hard candy.
Alternatively, the flavor composition D was used in stead of the flavor composition C to prepare flavone derivative (I)-containing hard candy in accordance with the same method.
Sensory tests for obtained hard candy were carried out by 8 panellers comprised of 6 males and 2 females at the age from 20 to 40.

[5] = Sensory test: body and deliciousness (soft candy); settings: 0.00001 (g) Compound 1, 8 panellers
Protocol: Compound 1 of the flavone derivative (I) was used as a taste modifier. Gelatin which was swelled in advance with a part of water, followed by heating to dissolve, granulated sugar, thick malt syrup and the remaining water was mixed, followed by boiling down to 130°C. Then, fondant paste, vegetable oils and fats, emulsifier, colorant and the flavone derivative (I) were added thereto, thereby preparing flavone derivative (I)-containing soft candy. Alternatively, flavone derivative (I) free soft candy was prepared as a control by the same method.
Sensory tests for obtained soft candy were conducted by 8 panellers comprised of 6 males and 2 females at the age from 20 to 40.

[6] = Sensory test: body and deliciousness (bread); settings: 0.00002 (g) Compound 5, 8 panellers
Protocol: Compound 5 of the flavone derivative (I) was used as a taste modifier. Strong flour, yeast food, bread yeast and water were mixed and fermented for four hours at 28°C. Dough materials comprising strong flour, sugar, powdered skim milk, shortening and water, and the flavone derivative (I) were added thereto and subjected to dough process, followed by baking for 25 minutes at 220°C, thereby preparing bread. Flavone derivative (I) free bread was prepared in the same manner as a control.
Sensory tests for obtained bread were conducted by 8 panellers comprised of 6 males and 2 females at the age from 20 to 40.

[7] = Five points evaluation test: saltiness and brackish taste modifying effect (soy sauce with low salt concentration); design: key: five-point scale; additive-free standard solution scored 2; settings: average points of 5 panellers (2: no changes)
Protocol: Compound 5 of the flavone derivative (I) was used as a taste modifier. To commercially available soy sauce with low salt concentration (salt concentration: 7 w/w%), 1, 0.1 and 0.01 ppm of the flavone derivative (I) was added respectively to prepare sample solutions. Sensory tests were carried out for the respective concentrations of sample solutions and 1/2 diluted solutions thereof. Flavone derivative (I) free solutions were used as standard solutions.
The sensory tests were conducted by 5 trained panellers to examine saltiness modifying effect (so called saltiness adapting effect) and brackish taste modifying effect.
as §2

[8] = Five points evaluation test: saltiness and savor modifying effect (salted squid); design: key: five-point scale; untreated standard scored 2; settings: average points of 5 panellers (2: no changes)
Protocol: Compound 5 of the flavone derivative (I) was used as a taste modifier. To commercially available salted squids, 1, 0.1 and 0.01 ppm of the flavone derivative (I) was added respectively to prepare samples. Sensory tests were carried out for the saltiness and the savor of salted squid. Flavone derivative (I) free salted squids were used as standards.
as §1, §2

[9] = 0.01 ppm, Soy sauce 1/2 dilution
[10] = 0.01 ppm, Soy sauce Undiluted solution
[11] = 0.10 ppm, Soy sauce 1/2 dilution
[12] = 0.10 ppm, Soy sauce Undiluted solution
[13] = 1.00 ppm, Soy sauce 1/2 dilution
[14] = 1.00 ppm, Soy sauce Undiluted solution

COc1ccc(-c2cc(=O)c3c(OC)cc(OC)c(OC)c3o2)cc1 [Compound 6, 5,7,8,4'-tetramethoxyflavone]
Saltiness and Savor Modifying Effect: Saltiness ([1]; 0.10 ppm in pickle solution): 3.0 | Saltiness and Savor Modifying Effect: Savor ([1]; 0.10 ppm in pickle solution): 3.0 | Saltiness and Savor Modifying Effect: Total evaluation ([1]; 0.10 ppm in pickle solution): 3.0 | Saltiness and Savor Modifying Effect: Saltiness ([1]; 1.00 ppm in pickle solution): 3.4 | Saltiness and Savor Modifying Effect: Savor ([1]; 1.00 ppm in pickle solution): 3.4 | Saltiness and Savor Modifying Effect: Total evaluation ([1]; 1.00 ppm in pickle solution): 3.4 | Value of enhancing the sourness Ascending system [2]: 120 | Value of enhancing the sourness Descending system [2]: 123

COc1ccc(-c2cc(=O)c3c(O)c(OC)c(OC)c(OC)c3o2)cc1 [Compound 9, 5-hydroxy-4',6,7,8-tetramethoxyflavone]
Continuity of refreshness: Those who sensed F additive is better [3]: 8 number of people | Continuity of refreshness: Those who sensed no difference [3]: 0 number of people | Quality of taste: Those who sensed F additive is better [3]: 6 number of people | Quality of taste: Those who sensed no difference [3]: 2 number of people | Refreshness: Those who sensed F additive is better [3]: 7 number of people | Refreshness: Those who sensed no difference [3]: 1 number of people | Value of enhancing the sourness Ascending system [2]: 117 | Value of enhancing the sourness Descending system [2]: 119

COc1ccc(-c2cc(=O)c3c(OC)c(OC)c(OC)cc3o2)cc1OC [Compound 1, 3',4',5,6,7-pentamethoxyflavone]
Continuity of the refreshness: Those who sensed D additive is better [4]: 8 number of people | Continuity of the refreshness: Those who sensed no difference [4]: 0 number of people | Quality of taste: Those who sensed D additive is better [4]: 6 number of people | Quality of taste: Those who sensed no difference [4]: 2 number of people | Refreshness: Those who sensed D additive is better [4]: 7 number of people | Refreshness: Those who sensed no difference [4]: 1 number of people | Value of enhancing the sourness Ascending system [2]: 119 | Value of enhancing the sourness Descending system [2]: 121 | Body: Those who sensed no difference [5]: 1 number of people | Body: Those who sensed the flavone derivative (I) additive is better [5]: 7 number of people | Deliciousness: Those who sensed no difference [5]: 0 number of people | Deliciousness: Those who sensed the flavone derivative (I) additive is better [5]: 8 number of people | Quality of taste: Those who sensed no difference [5]: 0 number of people | Quality of taste: Those who sensed the flavone derivative (I) additive is better [5]: 8 number of people

COc1cc(OC)c2c(=O)cc(-c3ccc(OC)c(OC)c3)oc2c1 [Compound 5, 3',4',5,7-tetramethoxyflavone]
Body: Those who sensed no difference [6]: 1 number of people | Body: Those who sensed the flavone derivative (I) additive is better [6]: 7 number of people | Deliciousness: Those who sensed no difference [6]: 2 number of people | Deliciousness: Those who sensed the flavone derivative (I) additive is better [6]: 6 number of people | Quality of taste: Those who sensed no difference [6]: 1 number of people | Quality of taste: Those who sensed the flavone derivative (I) additive is better [6]: 7 number of people | Brackish Taste Modifying Effect [7, 9]: 3.6 | Saltiness Modifying Effect [7, 9]: 3.8 | Brackish Taste Modifying Effect [7, 10]: 3.4 | Saltiness Modifying Effect [7, 10]: 3.6 | Brackish Taste Modifying Effect [7, 11]: 4.0 | Saltiness Modifying Effect [7, 11]: 4.0 | Brackish Taste Modifying Effect [7, 12]: 3.4 | Saltiness Modifying Effect [7, 12]: 3.6 | Brackish Taste Modifying Effect [7, 13]: 4.0 | Saltiness Modifying Effect [7, 13]: 4.4 | Brackish Taste Modifying Effect [7, 14]: 4.0 | Saltiness Modifying Effect [7, 14]: 4.0 | Saltiness and Savor Modifying Effect: Saltiness ([8]; 0.01 ppm): 3.0 | Saltiness and Savor Modifying Effect: Savor ([8]; 0.01 ppm): 3.6 | Saltiness and Savor Modifying Effect: Total evaluation ([8]; 0.01 ppm): 3.4 | Saltiness and Savor Modifying Effect: Saltiness ([8]; 0.10 ppm): 3.4 | Saltiness and Savor Modifying Effect: Savor ([8]; 0.10 ppm): 3.8 | Saltiness and Savor Modifying Effect: Total evaluation ([8]; 0.10 ppm): 3.6 | Saltiness and Savor Modifying Effect: Saltiness ([8]; 1.00 ppm): 3.8 | Saltiness and Savor Modifying Effect: Savor ([8]; 1.00 ppm): 4.0 | Saltiness and Savor Modifying Effect: Total evaluation ([8]; 1.00 ppm): 3.8 | Value of enhancing the sourness Ascending system [2]: 118 | Value of enhancing the sourness Descending system [2]: 121
